According to patent US5425935A, “Imaging of infections” (British Technology Group Limited, priority 1991, dated 1995):
One block for each molecule: values may come before it.

Legend:
[1] = Extent of complexation with Tc-99m prior to purification; format: physicochemical
Description: A further sample of Tc-99m-CIP complex was obtained as generally described in Example 1. Samples of Tc-99m complexed ofloxacin (obtained in powder form from Hoechst) and norfloxacin (obtained in powder form from Merck Sharpe & Dohme) were obtained as described for ciprofloxacin. Prior to purification, it was determined that the extent of complexation percent was as follows: […]

Escherichia coli (EC) = assay: Take up of Tc-99m complexes by Escherichia coli (EC), percentage radionuclide retained; format: cell-based; details: for percent radionuclide retained in the microorganism: 4 hours' incubation, purified complexes
[2] = test system: Staphylococcus aureus (SA); assay: Take up of Tc-99m complexes by Staphylococcus aureus (SA), percentage radionuclide retained; format: cell-based; details: for percent radionuclide retained in the microorganism: 4 hours' incubation, purified complexes
[3] = test system: Pseudomonas aboubinoba (PA); assay: Take up of Tc-99m complexes by Pseudomonas aboubinoba (PA), percentage radionuclide retained; format: cell-based; details: for percent radionuclide retained in the microorganism: 4 hours' incubation, purified complexes
[4] = 2 hr. incubation, not further purified
[5] = 4 hr. incubation, not further purified
[6] = 21 hr. incubation, CIP not further purified

extent of complexation percent [1]: 76.5%
Compound: CCn1cc(C(=O)O)c(=O)c2cc(F)c(N3CCNCC3)cc21 [norfloxacin]
percent radionuclide retained in the microorganism (Escherichia coli (EC)): 48.28%
percent radionuclide retained in the microorganism [2]: 37.86%
percent radionuclide retained in the microorganism [3]: 44.53%

Compound: O=C(O)c1cn(C2CC2)c2cc(N3CCNCC3)c(F)cc2c1=O [Tc-99m-ciprofloxacin, metal not drawn]
extent of complexation percent [1]: 51.7%
percentage radionuclide retained in the microorganisms (Escherichia coli (EC); [4]): 15.78 percentage
percent radionuclide retained in the microorganism (Escherichia coli (EC)): 43.89%
percentage radionuclide retained in the microorganisms (Escherichia coli (EC); [5]): 11.72 percentage
percentage radionuclide retained in the microorganisms (Escherichia coli (EC); [6]): 12.90 percentage
percentage radionuclide retained in the microorganisms [2, 4]: 17.24 percentage
percent radionuclide retained in the microorganism [2]: 58.47%
percentage radionuclide retained in the microorganisms [2, 5]: 14.63 percentage
percentage radionuclide retained in the microorganisms [2, 6]: 15.08 percentage
percentage radionuclide retained in the microorganisms [3, 4]: 24.14 percentage
percent radionuclide retained in the microorganism [3]: 50.20%
percentage radionuclide retained in the microorganisms [3, 5]: 16.67 percentage
percentage radionuclide retained in the microorganisms [3, 6]: 21.32 percentage

extent of complexation percent [1]: 88.5%
Compound: CC1COc2c(N3CCN(C)CC3)c(F)cc3c(=O)c(C(=O)O)cn1c23 (stereo not drawn) [ofloxacin]
percent radionuclide retained in the microorganism (Escherichia coli (EC)): 77.95%
percent radionuclide retained in the microorganism [2]: 76.94%
percent radionuclide retained in the microorganism [3]: 79.39%
